This passage reports IC50 results from US20200405697A1, “Antitumor Agent” (Taiho Pharmaceutical Co., Ltd, priority 2017, published 2020).

The assay addresses T1, human RNR (histidine tagged human M1 and human M2 proteins) (Homo sapiens, UniProt P23921).
T1 construct: made in house; host or cells: Escherichia coli
T1 sequence (P23921 1-792): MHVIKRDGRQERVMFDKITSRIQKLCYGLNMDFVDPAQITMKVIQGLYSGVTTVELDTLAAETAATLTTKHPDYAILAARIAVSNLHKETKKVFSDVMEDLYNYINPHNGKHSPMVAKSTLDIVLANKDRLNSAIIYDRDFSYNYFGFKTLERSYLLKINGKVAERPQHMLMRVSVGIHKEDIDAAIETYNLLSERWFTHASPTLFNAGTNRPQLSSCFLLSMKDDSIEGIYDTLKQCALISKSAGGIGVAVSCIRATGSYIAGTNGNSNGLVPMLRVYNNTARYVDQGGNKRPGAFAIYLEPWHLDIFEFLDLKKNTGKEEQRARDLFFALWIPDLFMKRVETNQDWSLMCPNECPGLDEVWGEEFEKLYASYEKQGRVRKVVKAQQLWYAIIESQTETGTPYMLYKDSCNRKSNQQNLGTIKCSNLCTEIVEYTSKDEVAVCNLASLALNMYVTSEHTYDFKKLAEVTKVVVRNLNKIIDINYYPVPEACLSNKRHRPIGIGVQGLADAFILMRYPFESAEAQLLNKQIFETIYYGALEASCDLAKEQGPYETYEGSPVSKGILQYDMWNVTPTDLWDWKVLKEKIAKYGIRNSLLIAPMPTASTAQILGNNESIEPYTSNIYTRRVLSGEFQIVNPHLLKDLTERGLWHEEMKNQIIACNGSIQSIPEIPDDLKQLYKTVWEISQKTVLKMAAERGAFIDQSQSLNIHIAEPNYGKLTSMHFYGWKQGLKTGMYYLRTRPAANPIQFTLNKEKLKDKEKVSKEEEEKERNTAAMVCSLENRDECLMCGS
Briefly: Human RNR inhibition effect (dCDP formation from CDP). Conditions: 10 μM CDP, 37° C. for 30 minutes, read-out: RNR inhibitory activity IC50. It counts as biochemical. A digest of the protocol:
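His-tagged human M1 (isoform 1) and N-terminal 59-aa-truncated M2 (isoform 2), E. coli-expressed, Ni-purified, preincubated 20 min with compound (1% DMSO). Reaction with 10 μM CDP, 2 mM ATP, 0.24 mM NADPH, 6 mM DTT, 4 mM Mg acetate, 100 mM KCl, 50 mM HEPES pH 7.2, 30 min at 37° C. dCDP formed quantified by reverse-phase HPLC after heat stop.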

For orientation: IC50 means the concentration that inhibits the measured activity by half. As to `Cc1ccc(F)c([C@@H](C)[C@H](NS(=O)(=O)c2ccc(Br)cc2C(N)=O)c2n[nH]c(=S)o2)c1C` [Example 332, 5-bromo-2-(N-((1S,2R)-2-(6-fluoro-2,3-dimethylphenyl)-1-(5-thioxo-4,5-dihydro-1,3,4-oxadiazol-2-yl)propyl)sulfamoyl)benzamide], the concentration for half-maximal inhibition (IC50) is 130 nM.

On to `Cc1cc(S(=O)(=O)N[C@H](c2n[nH]c(=O)o2)[C@H](C)c2c(F)ccc(C)c2C)c(C(N)=O)cc1Cl` [Example 257, 5-chloro-2-(N-((1S,2R)-2-(6-fluoro-2,3-dimethylphenyl)-1-(5-oxo-4,5-dihydro-1,3,4-oxadiazol-2-yl)propyl)sulfamoyl)-4-methylbenzamide], for which the IC50 was 100 nM.

Take `Cc1ccc(F)c([C@@H](C)[C@H](NS(=O)(=O)c2ccc(Cl)c(C(=O)N(C)C)n2)c2n[nH]c(=O)o2)c1C` [Example 253, 3-chloro-6-(N-((1S,2R)-2-(6-fluoro-2,3-dimethylphenyl)-1-(5-oxo-4,5-dihydro-1,3,4-oxadiazol-2-yl)propyl)sulfamoyl)-N,N-dimethylpicolinamide]: the IC50 came out at 80 nM.

Take `CCN1CCOc2c(S(=O)(=O)N[C@H](c3n[nH]c(=O)o3)[C@H](C)c3c(F)ccc(C)c3C)ccc(Cl)c21` [Example 94, 5-chloro-4-ethyl-N-((1S,2R)-2-(6-fluoro-2,3-dimethylphenyl)-1-(5-oxo4,5-dihydro-1,3,4-oxadiazol-2-yl)propyl)-3,4-dihydro-2H-benzo[b][1,4]oxazine-8-sulfonamide]: the half-maximal inhibitory concentration (IC50) was found to be 110 nM.

On to `Cc1ccc(F)c([C@H](C)[C@H](NS(=O)(=O)c2ccc(Cl)cc2C(N)=O)c2n[nH]c(=O)o2)c1C` [Example 32, 5-chloro-2-(N-((1S,2S)-2-(6-fluoro-2,3-dimethylphenyl)-1-(5-oxo-4,5-dihydro-1,3,4-oxadiazol-2-yl)propyl)sulfamoyl)benzamide], for which the IC50 worked out at 790 nM.

Take `Cc1ccc(F)c([C@@H](C)[C@H](NS(=O)(=O)c2ccc(Cl)c3c2C(=O)CCC3)c2n[nH]c(=O)o2)c1C` [Example 107, 4-chloro-N-((1S,2R)-2-(6-fluoro-2,3-diinethylphenyl)-1-(5-oxo-4,5-dihydro-1,3,4-oxadiazol-2-yl)propyl)-8-oxo-5,6,7,8-tetrahydronaphthalene-1-sulfonamide]: the IC50 was 240 nM.

As to `COc1ccc(-c2ccc(F)c([C@@H](C)[C@H](NS(=O)(=O)c3ccc(Cl)cc3OC)c3n[nH]c(=O)o3)c2C)cc1` [Example 298, 4-chloro-N-((1S,2R)-2-(4-fluoro-4′-methoxy-2-methyl-[1,1′-biphenyl]-3-yl)-1-(5-oxo-4,5-dihydro-1,3,4-oxadiazol-2-yl)propyl)-2-methoxybenzenesulfonamide], the half-inhibitory concentration (IC50) was 300 nM.

Consider `C[C@H](c1c(F)ccc2ccccc12)[C@H](NS(=O)(=O)c1ccc(Cl)c2c1OCCC2F)c1n[nH]c(=O)o1` (mixture of isomers) [Example 292, 5-chloro-4-fluoro-N-((1S,2R)-2-(2-fluoronaphthalen-1-yl)-1-(5-oxo-4,5-dihydro-1,3,4-oxadiazol-2-yl)propyl)chroman-8-sulfonamide], for which the IC50 worked out at 160 nM.

Regarding `Cc1cccc([C@@H](C)[C@H](NS(=O)(=O)c2ccc(Cl)cc2C(N)=O)c2n[nH]c(=O)o2)c1C` [Example 3, 5-chloro-2-(N-((1S,2R)-2-(2,3-dimethylphenyl)-1-(5-oxo-4,5-dihydro-1,3,4-oxadiazol-2-yl)propyl)sulfamoyl)benzamide], the half-maximal inhibitory concentration (IC50) amounted to 300 nM.

Regarding `Cc1ccc(F)c([C@@H](C)[C@H](NS(=O)(=O)c2cc(C(=O)N(C)C)ccc2C(N)=O)c2n[nH]c(=O)o2)c1C` [Example 37, 3-(N-((1S,2R)-2-(6-fluoro-2,3-dimethylphenyl)-1-(5-oxo-4,5-dihydro-1,3,4-oxadiazol-2-yl)propyl)sulfamoyl)-N1,N1-dimethylterephthalamide], the IC50 stood at 140 nM.

Take `[2H]C([2H])([2H])C1(O)CCOc2c(S(=O)(=O)N[C@H](c3n[nH]c(=O)o3)[C@H](C)c3c(F)ccc(Cl)c3C)ccc(Cl)c21` (single isomer, unassigned) [Example 228B]: the IC50 was found to be 140 nM.

Consider `COc1cc(C#N)ccc1S(=O)(=O)N[C@H](c1n[nH]c(=O)o1)[C@H](C)c1c(F)ccc(C)c1C` [Example 342, 4-cyano-N-((1S,2R)-(6-fluoro-2,3-dimethylphenyl)-1-(5-oxo-4,5-dihydro-1,3,4-oxadiazol-2-yl)propyl)-2-methoxybenzenesulfonamide], for which the 50% inhibitory concentration (IC50) turned out to be 90 nM.

For `Cc1ccc(F)c([C@@H](C)[C@H](NS(=O)(=O)c2ccc(Cl)cc2-c2ccno2)c2n[nH]c(=O)o2)c1C` [Example 91, 4-chloro-N-((1S,2R)-2-(6-fluoro-2,3-dimethylphenyl)-1-(5-oxo-4,5-dihydro-1,3,4-oxadiazol-2-yl)propyl)-2-(isoxazol-5-yl)benzenesulfonamide], the half-maximal inhibitory concentration (IC50) stood at 230 nM.

Turning to `Cc1cccc([C@@H](C)[C@H](NS(=O)(=O)c2ccc(Br)cc2C(N)=O)c2n[nH]c(=O)o2)c1C` [Example 4, 5-bromo-2-(N-((1S,2R)-2-(2,3-dimethylphenyl)-1-(5-oxo-4,5-dihydro-1,3,4-oxadiazol-2-yl)propyl)sulfamoyl)benzamide], the IC50 was 380 nM.

As to `Cc1c(Cl)ccc(F)c1[C@@H](C)[C@H](NS(=O)(=O)c1ccc(Br)cc1C(N)=O)c1n[nH]c(=O)o1` [Example 25, 5-bromo-2-(N-((1S,2R)-2-(3-chloro-6-fluoro-2-methylphenyl)-1-(5-oxo-4,5-dihydro-1,3,4-oxadiazol-2-yl)propyl)sulfamoyl)benzamide], the half-inhibitory concentration (IC50) came to 150 nM.

For the compound `COc1cc(Cl)ccc1S(=O)(=O)N[C@H](c1n[nH]c(=O)o1)[C@H](C)c1c(C)c(C)cc(F)c1F` [Example 90, 4-chloro-N-((1S,2R)-2-(2,3-difluoro-5,6-dimethylphenyl)-1-(5-oxo-4,5-dihydro-1,3,4-oxadiazol-2-yl)propyl)-2-methoxybenzenesulfonamide], the half-maximal inhibitory concentration (IC50) amounted to 160 nM.

Turning to `COc1cc(Cl)ccc1S(=O)(=O)N[C@H](c1n[nH]c(=O)o1)[C@H](C)c1c(F)ccc(-c2cnn(C3CCC3)c2)c1C` [Example 312, 4-chloro-N-((1S,2R)-2-(3-(1-cyclobutyl-1H-pyrazol-4-yl)-6-fluoro-2-methylphenyl)-1-(5-oxo-4,5-dihydro-1,3,4-oxadiazol-2-yl)propyl)-2-methoxybenzenesulfonamide], the IC50 came to 220 nM.

On to `COc1cc(Cl)ccc1S(=O)(=O)N[C@H](c1n[nH]c(=O)o1)[C@H](C)c1c(F)ccc(-c2ccc(N3CCCCC3)nc2)c1C` [Example 320, 4-chloro-N-((1S,2R)-2-(6-fluoro-2-methyl-3-(6-(piperidin-1-yl)pyridin-3-yl)phenyl)-1-(5-oxo-4,5-dihydro-1,3,4-oxadiazol-2-yl)propyl)-2-methoxybenzenesulfonamide], for which the concentration for half-maximal inhibition (IC50) is 600 nM.

Consider `C[C@H](c1cccc2c1-c1ccccc1C2)[C@H](NS(=O)(=O)c1ccc(Br)cn1)c1n[nH]c(=O)o1` [Example 50, N-((1S,2R)-2-(9H-fluoren-4-yl)-1-(5-oxo-4,5-dihydro-1,3,4-oxadiazol-2-yl)propyl)-5-bromopyridine-2-sulfonamide], for which the 50% inhibitory concentration (IC50) came out at 850 nM.

Take `COC(=O)c1cc(Cl)cnc1S(=O)(=O)N[C@H](c1n[nH]c(=O)o1)[C@H](C)c1c(F)ccc(C)c1C` [Example 118, methyl 5-chloro-2-(N-((1S,2R)-2-(6-fluoro-2,3-dimethylphenyl)-1-(5-oxo-4,5-dihydro-1,3,4-oxadiazol-2-yl)propyl)sulfamoyl)nicotinate]: the half-inhibitory concentration (IC50) was 340 nM.

As for `Cc1ccc(F)c([C@@H](C)[C@H](NS(=O)(=O)c2ccc(Cl)cc2OCC(F)F)c2n[nH]c(=O)o2)c1C` [Example 145, 4-chloro-2-(2,2-difluoroethoxy)-N-((1S,2R)-2-(6-fluoro-2,3-dimethylphenyl)-1-(5-oxo-4,5-dihydro-1,3,4-oxadiazol-2-yl)propyl)benzenesulfonamide], the 50% inhibitory concentration (IC50) came out at 440 nM.

`Cc1ccc(F)c([C@@H](C)[C@H](NS(=O)(=O)c2c(F)cc(F)c3c2OCCC3O)c2n[nH]c(=O)o2)c1C` (stereo partly drawn) [Example 242, 5,7-difluoro-N-((1S,2R)-2-(6-fluoro-2,3-dimethylphenyl)-1-(5-oxo-4,5-dihydro-1,3,4-oxadiazol-2-yl)propyl)-4-hydroxychroman-8-sulfonamide]: the concentration for half-maximal inhibition (IC50) stood at 230 nM.

`COC(=O)c1cc(S(=O)(=O)N[C@H](c2n[nH]c(=S)o2)[C@H](C)c2cccc3c2CCC3)ccc1Cl` [Example 334, methyl 2-chloro-5-(N-((1S,2R)-2-(2,3-dihydro-1H-inden-4-yl)-1-(5-thioxo-4,5-dihydro-1,3,4-oxadiazol-2-yl)propyl)sulfamoyl)benzoate]: the IC50 came out at 830 nM.
